Source: US5521155A, “Amides of teicoplanin compounds” (Gruppo Lepetit S.p.A, priority 1985, dated 1996)
≈ marks a conversion by molar mass, not a printed value.

How the values were obtained:
[1] = test system: Pseudomonas aeruginosa ATCC 10145; test: In vitro antibacterial activity, standard agar-dilution test (MIC); format: cell-based; settings: inoculum about 10^4 CFU/ml, 18-24 h at 37° C.
Protocol: (§1) The culture medium ISOSENSITEST BROTH (Oxoid) and the colture medium TODD-[…] BROTH (Difco) are used for growing staphylococci and streptococci, respectively. Broth cultures are diluted so that the final inoculum is about 10^4 colony forming units/ml (CFU/ml).

S. pyogenes C 203 = test: as above; format: cell-based; settings: inoculum about 10^4 CFU/ml, 18-24 h at 37° C.
Protocol: as §1

[2] = test system: S. epidermidis ATCC 12228; test: as above; format: cell-based; settings: inoculum about 10^4 CFU/ml, 18-24 h at 37° C.
Protocol: as §1

E. coli SKF 12140 = test: as above; format: cell-based; settings: inoculum about 10^4 CFU/ml, 18-24 h at 37° C.
Protocol: as §1

S. aureus Tour = test: as above; format: cell-based; settings: inoculum about 10^4 CFU/ml, 18-24 h at 37° C.
Protocol: as §1

[3] = test system: Proteus vulgaris X 19H ATCC 881; test: as above; format: cell-based; settings: inoculum about 10^4 CFU/ml, 18-24 h at 37° C.
Protocol: as §1

S. pneumoniae UC 41 = test: as above; format: cell-based; settings: inoculum about 10^4 CFU/ml, 18-24 h at 37° C.
Protocol: as §1

S. faecalis ATCC 7080 = test: as above; format: cell-based; settings: inoculum about 10^4 CFU/ml, 18-24 h at 37° C.
Protocol: as §1

S. pyogenes L 49 = test: In vivo test in mice experimentally infected with S. pyogenes L 49 (ED50); settings: mice infected with S. pyogenes L 49; for ED50, route of administration os.: oral
[4] = Isoelectric point (pI) by isoelectrofocusing with bioautography detection; format: physicochemical; settings: IEF technique, polyacrylamide gel
Source text: The isoelectrofocusing (IEF) technique coupled with bioautography detection has been used for the determination of the pI of representative compounds of the invention using the following materials: AMPHOLINE carrier ampholytes (40% w/v) were purchased from LKB Produketer AB, Bromma, Sweden. Acrylamide, N,N'-methylenbisacrylamide (BIS), N,N,N',N'-tetramethylethylenediamine (TEMED) and ammonium persulfate were from Bio Rad Laboratorie, Richmond, Calif., USA. Glycerol and Antibiotic agar N. 1 (Grove and Randall medium N. 1) were from E. Merck Darmstadt FRG. GEL FIX polyester sheets were purchased from Serva Feinbiochemica Heidelberg. Phenolindo (2,6-dichlorophenol) came from BDH Chemicals Ltd. Poole, England.
IEF was made on gel slab using a LKB MULITPHOR 2117 cell and a Bio-Rad Power Supply Model 1420A. Slabs of 24.5×11.5 cm and 1 mm thickness were prepared on a sheet of GEL FIX. Polyacrylamide gels with a concentration of 8% T and with a cross-linkage of 4% C (30% T stock solution was prepared by dissolving 28.8 g of acrylamide and 1.2 g of bis-acrylamide in 100 ml distilled water), glycerol, 3.5% v/v, 2% AMPHOLINE, 0.05% ammonium persulphate as catalyst and 0.05% TEMED as accelerator. The carrier ampholite composition for 35 ml gelling solution was as follows:
The electrode solutions, as recommended by LKB for the respective pH range, were:
The gel was cooled to 4° C. with the aid of a LKB 2209 refrigerated constant temperature circulator. After prefocusing for 30 min. at 5 W, the samples (20 μl containing 0.2 to 2.5 μg of antibiotic) were loaded into the slot at the cathodic side. Electrofocusing was performed using 10 W constant power and was completed after 3-31/2 hours with a final potential of 1400 V.
The pH values were determined by dividing a portion of the gel into 1 cm sections, and eluting the individual pieces at room temperature with 1 ml of 10 mM KCl prior to pH readings.
The isoelectric point of each antibiotic was determined by interpolation on a curve obtained by plotting pH values versus the distance from the anode.
Polyacrylamide gel was placed on a 3 mm layer of agar medium N. 1 inoculated with 1% of Bacillus subtilis ATCC 6633 spore (0.5 OD at 600 nm). After 10 min the gel was removed and the plate was incubated overnight at 37° C. and examined for inhibition zones. The contrast between the area of lysis and that of bacterial growth was enhanced by use of Phenolindo(2,6-dichlorophenol) 1% w/v (oxidation-reduction indicator).

Row | SMILES | MIC Pseudomonas aeruginosa ATCC 10145 [1] [µg/mL] | MIC S. pyogenes C 203 (S. pyogenes C 203) [µg/mL] | MIC S. epidermidis ATCC 12228 [2] [µg/mL] | MIC E. coli SKF 12140 (E. coli SKF 12140) [µg/mL] | MIC S. aureus Tour (S. aureus Tour) [µg/mL] | MIC Proteus vulgaris X 19H ATCC 881 [3] [µg/mL] | MIC S. pneumoniae UC 41 (S. pneumoniae UC 41) [µg/mL] | MIC S. faecalis ATCC 7080 (S. faecalis ATCC 7080) [µg/mL] | ED50, route of administration os. (S. pyogenes L 49) [mg/kg] | ED50, route of administration s.c (S. pyogenes L 49) [mg/kg] | Isoelectric point (pI) [4]
1 | CN(C)CCNC(=O)C1NC(=O)C2NC(=O)C(NC(=O)C3NC(=O)C4NC(=O)C(Cc5ccc(c(Cl)c5)Oc5cc3cc(c5O)Oc3ccc(cc3Cl)C2O)NC(=O)C(N)c2ccc(O)c(c2)Oc2cc(O)cc4c2)c2ccc(O)c(c2)-c2c(O)cc(O)cc21.Cl.Cl (stereo not shown) [Compound 94] | 16 | 0.06 | 0.06 | 4 | 0.06 | 32 | 0.06 | 0.12 | > 300 | 1.25 | –
2 | CCCCCN(CCCCC)CCCNC(=O)C1NC(=O)C2NC(=O)C(NC(=O)C3NC(=O)C4NC(=O)C(Cc5ccc(c(Cl)c5)Oc5cc3cc(c5O)Oc3ccc(cc3Cl)C2OC2OC(CO)C(O)C(O)C2NC(C)=O)NC(=O)C(N)c2ccc(O)c(c2)Oc2cc(O)cc4c2)c2ccc(O)c(c2)-c2c(OC3OC(CO)C(O)C(O)C3O)cc(O)cc21 (stereo not shown) [Compound 43] | – | – | – | – | – | – | – | – | – | – | 8.7
3 | CCCCOC(=O)C(CCCNC(=N)N)NC(=O)C1NC(=O)C2NC(=O)C(NC(=O)C3NC(=O)C4NC(=O)C(Cc5ccc(c(Cl)c5)Oc5cc3cc(c5O)Oc3ccc(cc3Cl)C2O)NC(=O)C(N)c2ccc(O)c(c2)Oc2cc(O)cc4c2)c2ccc(O)c(c2)-c2c(O)cc(O)cc21 (stereo not shown) [Compound 103] | 128 (≈ 90.7 µM) | 0.5 (≈ 0.354 µM) | 0.5 (≈ 0.354 µM) | 64 (≈ 45.4 µM) | 2 (≈ 1.42 µM) | > 128 | 0.5 (≈ 0.354 µM) | 1 (≈ 0.709 µM) | – | – | –
4 | CCCCCCN(CCCCCC)CCCNC(=O)C1NC(=O)C2NC(=O)C(NC(=O)C3NC(=O)C4NC(=O)C(Cc5ccc(c(Cl)c5)Oc5cc3cc(c5O)Oc3ccc(cc3Cl)C2O)NC(=O)C(N)c2ccc(O)c(c2)Oc2cc(O)cc4c2)c2ccc(O)c(c2)-c2c(O)cc(O)cc21 (stereo not shown) [Compound 62] | – | – | – | – | – | – | – | – | – | – | 8.6
5 | CCCCCCN(CCCCCC)CCCNC(=O)C1NC(=O)C2NC(=O)C(NC(=O)C3NC(=O)C4NC(=O)C(Cc5ccc(c(Cl)c5)Oc5cc3cc(c5O)Oc3ccc(cc3Cl)C2OC2OC(CO)C(O)C(O)C2NC(C)=O)NC(=O)C(N)c2ccc(O)c(c2)Oc2cc(O)cc4c2)c2ccc(O)c(c2)-c2c(OC3OC(CO)C(O)C(O)C3O)cc(O)cc21 (stereo not shown) [Compound 44] | – | – | – | – | – | – | – | – | – | – | 8.7
6 | CC(=O)NC1C(OC2c3ccc(c(Cl)c3)Oc3cc4cc(c3O)Oc3ccc(cc3Cl)CC3NC(=O)C(N)c5ccc(O)c(c5)Oc5cc(O)cc(c5)C(NC3=O)C(=O)NC4C(=O)NC3C(=O)NC2C(=O)NC(C(=O)NCC(=O)O)c2cc(O)cc(O)c2-c2cc3ccc2O)OC(CO)C(O)C1O (stereo not shown) [Compound 56] | – | – | – | – | – | – | – | – | – | – | 5.8
7 | NCCCCNC(=O)C1NC(=O)C2NC(=O)C(NC(=O)C3NC(=O)C4NC(=O)C(Cc5ccc(c(Cl)c5)Oc5cc3cc(c5O)Oc3ccc(cc3Cl)C2O)NC(=O)C(N)c2ccc(O)c(c2)Oc2cc(O)cc4c2)c2ccc(O)c(c2)-c2c(O)cc(O)cc21 (stereo not shown) [Compound 99] | 32 (≈ 25.2 µM) | 0.06 (≈ 0.0473 µM) | 0.06 (≈ 0.0473 µM) | 8 (≈ 6.3 µM) | 0.06 (≈ 0.0473 µM) | 32 (≈ 25.2 µM) | 0.12 (≈ 0.0946 µM) | 0.12 (≈ 0.0946 µM) | – | – | –
8 | CCN1CCCC1CNC(=O)C1NC(=O)C2NC(=O)C(NC(=O)C3NC(=O)C4NC(=O)C(Cc5ccc(c(Cl)c5)Oc5cc3cc(c5O)Oc3ccc(cc3Cl)C2O)NC(=O)C(N)c2ccc(O)c(c2)Oc2cc(O)cc4c2)c2ccc(O)c(c2)-c2c(O)cc(O)cc21.Cl.Cl (stereo not shown) [Compound 79] | 64 | 0.06 | 0.06 | 4 | 0.06 | 32 | 0.06 | 0.12 | > 300 | 1.25 | –
9 | NCCCCCCNC(=O)C1NC(=O)C2NC(=O)C(NC(=O)C3NC(=O)C4NC(=O)C(Cc5ccc(c(Cl)c5)Oc5cc3cc(c5O)Oc3ccc(cc3Cl)C2O)NC(=O)C(N)c2ccc(O)c(c2)Oc2cc(O)cc4c2)c2ccc(O)c(c2)-c2c(O)cc(O)cc21 (stereo not shown) [Compound 102] | 64 (≈ 49.3 µM) | 0.06 (≈ 0.0463 µM) | 0.06 (≈ 0.0463 µM) | 4 (≈ 3.08 µM) | 0.06 (≈ 0.0463 µM) | 64 (≈ 49.3 µM) | 0.06 (≈ 0.0463 µM) | 0.12 (≈ 0.0925 µM) | – | – | –
10 | NC1C(=O)NC2Cc3ccc(c(Cl)c3)Oc3cc4cc(c3O)Oc3ccc(cc3Cl)C(O)C3NC(=O)C(NC(=O)C4NC(=O)C(NC2=O)c2cc(O)cc(c2)Oc2cc1ccc2O)c1ccc(O)c(c1)-c1c(O)cc(O)cc1C(C(=O)NCC(=O)O)NC3=O (stereo not shown) [Compound 65] | – | – | – | – | – | – | – | – | – | – | 5.8
11 | CN(C)CCCCNC(=O)C1NC(=O)C2NC(=O)C(NC(=O)C3NC(=O)C4NC(=O)C(Cc5ccc(c(Cl)c5)Oc5cc3cc(c5O)Oc3ccc(cc3Cl)C2O)NC(=O)C(N)c2ccc(O)c(c2)Oc2cc(O)cc4c2)c2ccc(O)c(c2)-c2c(O)cc(O)cc21.O=C(O)C(F)(F)F.O=C(O)C(F)(F)F (stereo not shown) [Compound 97] | 32 | 0.06 | 0.06 | 8 | 0.12 | 32 | 0.12 | 0.12 | > 300 | 0.54 | –
12 | COC(=O)CNC(=O)C1NC(=O)C2NC(=O)C(NC(=O)C3NC(=O)C4NC(=O)C(Cc5ccc(c(Cl)c5)Oc5cc3cc(c5O)Oc3ccc(cc3Cl)C2OC2OC(CO)C(O)C(O)C2NC(C)=O)NC(=O)C(N)c2ccc(O)c(c2)Oc2cc(O)cc4c2)c2ccc(O)c(c2)-c2c(OC3OC(CO)C(O)C(O)C3O)cc(O)cc21 (stereo not shown) [Compound 47] | – | – | – | – | – | – | – | – | – | – | 7.8
13 | CN(C)CCN(C)C(=O)C1NC(=O)C2NC(=O)C(NC(=O)C3NC(=O)C4NC(=O)C(Cc5ccc(c(Cl)c5)Oc5cc3cc(c5O)Oc3ccc(cc3Cl)C2O)NC(=O)C(N)c2ccc(O)c(c2)Oc2cc(O)cc4c2)c2ccc(O)c(c2)-c2c(O)cc(O)cc21 (stereo not shown) [Compound 93] | 64 (≈ 49.9 µM) | 0.06 (≈ 0.0468 µM) | 0.06 (≈ 0.0468 µM) | 8 (≈ 6.23 µM) | 0.06 (≈ 0.0468 µM) | 64 (≈ 49.9 µM) | 0.06 (≈ 0.0468 µM) | 0.12 (≈ 0.0935 µM) | > 300 | 1.25 | –
